Data reported in PubChem BioAssay (NCI).
Where “and” joins values, the source holds several entries; their conditions need not be identical. Equal entries are not always repeated.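 A five-concentration, 48-hour dose response in 96-well plates underlies each endpoint, interpolated linearly between surrounding concentrations. GI50 marks 50% less growth. TGI marks complete inhibition of growth.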

Assays:
Experiment in all cases: growth of human tumour cells (NCI), 48 h
OVCAR-3 ovarian = test system: OVCAR-3 ovarian
TK-10 renal = test system: TK-10 renal
LXFL 529 NSCLC = test system: LXFL 529 NSCLC
NCI-H460 lung = test system: NCI-H460 lung
KM20L2 colon = test system: KM20L2 colon
SK-MEL-2 melanoma = test system: SK-MEL-2 melanoma
DMS 114 small cell lung = test system: DMS 114 small cell lung
OVCAR-8 ovarian = test system: OVCAR-8 ovarian
K-562 leukemia = test system: K-562 leukemia
DU-145 prostate = test system: DU-145 prostate

Structure (SMILES)	GI50 (OVCAR-3 ovarian)	TGI (OVCAR-3 ovarian)	GI50 (TK-10 renal)	TGI (TK-10 renal)	GI50 (LXFL 529 NSCLC) [µM]	TGI (LXFL 529 NSCLC)	GI50 (NCI-H460 lung) [µM]	TGI (NCI-H460 lung)	GI50 (KM20L2 colon) [µM]	TGI (KM20L2 colon)	GI50 (SK-MEL-2 melanoma)	TGI (SK-MEL-2 melanoma)	GI50 (DMS 114 small cell lung) [µM]	TGI (DMS 114 small cell lung)	GI50 (OVCAR-8 ovarian)	TGI (OVCAR-8 ovarian)	GI50 (K-562 leukemia) [µM]	TGI (K-562 leukemia)	GI50 (DU-145 prostate)	TGI (DU-145 prostate)
C[C@@]12CCCc3coc(c31)C(=O)c1cc3c(cc12)C(=O)C=CC3=O	> 1 µM	> 1 µM and 41.8 µM	> 1 µM	> 1 µM and 35.8 µM	> 1	> 1 µM and 28.2 µM	> 1	> 1 µM and 41.3 µM	> 1	> 1 µM and 35.1 µM	> 1 µM	> 1 µM and 29 µM	> 1	> 1 µM and 39.9 µM	> 1 µM	> 1 µM and 29.1 µM	> 1	> 1 µM and 78.2 µM	–	–
CN1NC(=Nc2ccccc2)Sc2c1cnn(-c1ccccc1)c2=O	–	90.6 µM	–	> 100 µM	–	> 100 µM	–	> 100 µM	–	> 100 µM	–	> 100 µM	–	> 100 µM	–	> 100 µM	–	> 100 µM	–	–
C=CCNC(=O)N(CCC)CCCCC(NC(C)=O)C(=O)NCc1ccccc1 (stereo not drawn)	–	> 100 µM	–	> 100 µM	–	> 100 µM	–	> 100 µM	–	> 100 µM	–	> 100 µM	–	> 100 µM	–	> 100 µM	–	> 100 µM	–	–
COC(=O)CCC(=O)CC1CC(=O)C2CCCN12 (stereo not drawn)	–	> 100 µM	–	> 100 µM	–	> 100 µM	–	> 100 µM	–	> 100 µM	–	> 100 µM	–	> 100 µM	–	> 100 µM	–	> 100 µM	–	–
COc1cc2cccc(N=Cc3cccc(OC)c3OC(C)C)c2cc1OC	–	41 µM	–	59 µM	–	31.1 µM	–	> 100 µM	–	> 100 µM	–	48.6 µM	–	38.7 µM	–	53.1 µM	–	89 µM	–	–
CC(C)CCCC(C)[C@H]1CCC2[C@H]3C(CC[C@@]21C)[C@@]1(C)CCC=C[C@]12C[C@@H]2[C@@H]3O (stereo partly drawn)	–	> 100 µM	–	> 100 µM	–	> 100 µM	–	> 100 µM	–	> 100 µM	–	–	–	> 100 µM	–	> 100 µM	–	–	–	–
C1C[OH+]CCNCC[OH+]CC[OH+]CCN1.[Cl-].[Pt+4]	> 100 µM	> 100 µM	> 100 µM	> 100 µM	> 100	> 100 µM	> 100	> 100 µM	> 100	> 100 µM	> 100 µM	> 100 µM	–	–	> 100 µM	> 100 µM	> 100	> 100 µM	–	–
Nc1nc(CCl)nc(Nc2ccccc2)n1	–	32.8 µM	–	83.4 µM	–	28.9 µM	–	39.3 µM	–	35.9 µM	–	44.1 µM	–	36.5 µM	–	> 100 µM	–	–	–	–
Cc1cc(NS(=O)(=O)c2ccc(Nc3c4ccccc4nc4c(C(=O)NCCN(C)C)cccc34)cc2)no1	–	–	–	> 100 µM	–	> 100 µM	–	26.6 µM	–	> 100 µM	–	–	–	14 µM	–	> 100 µM	–	> 100 µM	–	–
CC1(C)O/C(=C\c2ccccc2)C(=O)/C(=C/c2ccccc2)O1	–	> 100 µM	–	> 100 µM	–	> 100 µM	–	> 100 µM	–	–	–	56.7 µM	–	48.1 µM	–	> 100 µM	–	> 100 µM	–	–
C[n+]1cc(C(O)c2ccc3c(c2)OCO3)c2ccccc2c1 (stereo not drawn)	–	> 100 µM	–	> 100 µM	–	–	–	> 100 µM	–	> 100 µM	–	96.1 µM	–	83.5 µM	–	> 100 µM	–	> 100 µM	–	–
C=C1C[C@]23CCC4C(C)(C)C(=O)CC[C@]4(C)C2C[C@H]1C(O)C3=O (stereo partly drawn)	–	> 75 µM	–	–	–	> 75 µM	–	–	–	> 75 µM	–	> 75 µM	–	–	–	> 75 µM	–	> 75 µM	–	–
N.N.N.N.[Cl-].[Co+3].[N-]=[N+]=[N-].[N-]=[N+]=[N-]	> 100 µM	> 100 µM	> 100 µM	> 100 µM	> 100	> 100 µM	> 100	> 100 µM	> 100	> 100 µM	> 100 µM	> 100 µM	–	–	> 100 µM	> 100 µM	> 100	> 100 µM	–	–
O=C(/C=C/c1cc(CN2CCOCC2)c(O)c2ncccc12)c1cc(CN2CCOCC2)c(O)c2ncccc12	0.0535 µM	> 100 µM	0.0318 µM	> 100 µM	–	–	< 0.0169	> 55.9 µM	–	–	0.0637 µM	4.99 µM	–	–	0.0359 µM	> 100 µM	< 0.0114	> 100 µM	< 0.0219 µM	> 100 µM
Cc1cc(S(=O)(=O)N/N=C(\Sc2cc(Cl)c(C)cc2S(N)(=O)=O)c2ccc(Cl)cc2)c(Cl)cc1Cl	31.1 µM	> 100 µM	> 100 µM	> 100 µM	–	–	> 100	> 100 µM	–	–	> 100 µM	> 100 µM	–	–	> 100 µM	> 100 µM	67.7	> 100 µM	> 100 µM	> 100 µM
CC(C)S(=O)(=O)c1ccccc1Nc1nc(Nc2cccc(NC(=O)CN)c2)ncc1Cl	0.158 µM	3.75 µM	0.362 µM	7.86 µM	–	–	0.0306	1.64 µM	–	–	0.347 µM	1.57 µM	–	–	0.286 µM	6.97 µM	0.198	2.55 µM	0.406 µM	6.51 µM
CC(=O)O[C@H](C[C@H](C(C)C)N(C)C(=O)[C@@H](NC(=O)[C@H]1CCCCN1C)C(C)C)c1nc(C(=O)N[C@@H](Cc2ccccc2)C[C@H](C)C(=O)O)c(CCOCc2ccccc2)s1	< 0.001 µM	–	0.108 µM	> 10 µM	–	–	< 0.001	> 10 µM	–	–	< 0.001 µM	> 5.68 µM	–	–	< 0.001 µM	> 10 µM	< 0.001	> 10 µM	< 0.001 µM	0.00119 µM
C[C@]12CC[C@H](O)C[C@H]1CC[C@@H]1[C@@H]2CC[C@]2(C)[C@@H](C3=CC(=O)OC3)CC[C@]12O	–	0.204 µM	–	1.59 µM	–	–	–	0.139 µM	–	–	–	1.56 µM	–	–	–	1.07 µM	–	1.42 µM	0.0325 µM	0.146 µM
COCCOc1cnc2ccn([C@H](C)c3nnc4c(F)cc(-c5cnn(C)c5)cn34)c(=O)c2c1	> 100 µM	> 100 µM	> 100 µM	> 100 µM	–	–	> 100	> 100 µM	–	–	> 100 µM	> 100 µM	–	–	> 100 µM	> 100 µM	> 100	> 100 µM	> 100 µM	> 100 µM
CN(C)C(=S)/N=c1\ss/c(=N\C(=S)N(C)C)n1-c1ccc(Cl)c(Cl)c1	–	> 100 µM	–	> 100 µM	–	–	–	> 100 µM	–	> 100 µM	–	> 100 µM	–	> 100 µM	–	> 100 µM	–	> 100 µM	–	–
COc1ccc2c(c1)[C@@]13CCCC[C@H]1[C@@H](C2)N(C)CC3=O	–	32.9 µM	–	40.7 µM	–	–	–	69.5 µM	–	–	–	53.9 µM	–	–	–	42.1 µM	–	> 100 µM	–	45.2 µM
O=c1[nH]cnc2cccc(Cl)c12	–	> 100 µM	–	> 100 µM	–	–	–	> 100 µM	–	–	–	> 100 µM	–	–	–	> 100 µM	–	> 100 µM	–	> 100 µM
COC(=O)OCC1OC(N2C(=O)NC(=O)C(Br)C2N=[N+]=[N-])CC1OC(=O)OC (stereo not drawn)	–	> 100 µM	–	> 100 µM	–	> 100 µM	–	> 100 µM	–	> 100 µM	–	–	–	> 100 µM	–	> 100 µM	–	–	–	–
O=c1[nH]c2cc(Cl)ccc2nc1/C(=N\O)C(O)c1ccc(Cl)cc1Cl (stereo not drawn)	–	> 100 µM	–	–	–	> 100 µM	–	> 100 µM	–	> 100 µM	–	–	–	> 100 µM	–	> 100 µM	–	> 100 µM	–	–
COc1ccc(C(=O)COc2cccc(/C=C3\Oc4ccc5ccccc5c4C3=O)c2)cc1	1.78 µM	3.54 µM	12 µM	24.7 µM	–	–	20.6	52.6 µM	–	–	3.76 µM	16.6 µM	–	–	4.57 µM	14.9 µM	1.53	3.73 µM	4.19 µM	16 µM
COc1cc2c(c(OC)n1)[C@]1(O)[C@H](O)[C@H](CN(C)C)[C@@H](c3ccccc3)[C@]1(c1ccc(C#N)cc1)O2	0.0334 µM and 0.0146 µM	2.78 µM and 1.87 µM	0.0543 µM and 0.0672 µM	2.9 µM and 6.22 µM	–	–	< 0.01	3.48 µM and 6.88 µM	–	–	0.0319 µM and 0.034 µM	0.318 µM and 0.369 µM	–	–	0.0292 µM and 0.0316 µM	10.1 µM and 11.5 µM	< 0.01	–	0.0191 µM and < 0.0136 µM	3.45 µM and 3.69 µM
COc1ccc(OC)c2c(/C=C/c3ccc(N(C)C)cc3)ccnc12	–	> 10 µM	–	> 10 µM	–	–	–	> 10 µM	–	–	–	> 10 µM	–	–	–	> 10 µM	–	> 10 µM	–	> 10 µM
COc1cc(C)c2c(c1C)OC(=O)c1c(C)c(Cl)c(O)c(C=O)c1O2	–	9.5 µM	–	> 100 µM	–	43.3 µM	–	40.3 µM	–	69.5 µM	–	–	–	–	–	27.4 µM	–	45.6 µM	–	–
CN[C@@H](C)[C@H](NC)c1ccccc1	–	> 100 µM	–	> 100 µM	–	> 100 µM	–	–	–	–	–	–	–	> 100 µM	–	> 100 µM	–	> 100 µM	–	–
Oc1cn(-c2ccc(Cl)cc2)nc1-c1n[nH]c(=S)n1C1CCCCC1	< 0.0456 µM	0.424 µM	0.807 µM	34.1 µM	–	–	0.334	> 100 µM	–	–	> 52.3 µM	> 100 µM	–	–	0.46 µM	16.8 µM	< 0.0427	–	0.502 µM	> 33.9 µM
